The values that follow come from patent US20250388605A1, “HETEROBIFUNCTIONAL COMPOUNDS AND METHODS OF TREATING DISEASE” (Halda Therapeutics OpCo, Inc., priority 2022, published 2025).

Experiment [1] concerns T-Rex 293 cell line SC3 cells having increased expression of androgen receptor protein due to exposure to doxycycline. Description: Cellular growth inhibition, T-Rex 293 SC3 cells with doxycycline (increased androgen receptor expression), CellTiter-Glo. Format: cell-based. Conditions: T-Rex 293 SC3 cells with 10 ng/mL doxycycline (increased androgen receptor expression), 72 hours, CellTiter-Glo 2.0. In short, it runs like this:
(§1)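 Doxycycline (10 ng/mL) was either included or omitted to toggle wild-type androgen receptor expression in SC3 cells, a T-Rex 293 clone, grown in stripped-serum, phenol red-free medium. After 72 hours with compound, viable cells were quantified by CellTiter-Glo 2.0.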
(Cellular ATP, detected with luciferase, serves as a proxy for viable cell number.)

For the next experiment, the system named is VCaP cells. Description: Cellular growth inhibition assay for VCaP cells, CellTiter-Glo. Format: cell-based, human. The note with it: 72 hours. Summed up:
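GI50 values come from four-parameter curve fits of luminescence data normalized to a zero baseline. Compound, in medium with 0.5% DMSO, was added one day after plating and left for 72 h before CellTiter-Glo 2.0 addition.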

The subject of experiment [2] is T-Rex 293 cell line SC3 cells lacking increased expression of androgen receptor protein. The experiment is described as follows: Cellular growth inhibition, T-Rex 293 SC3 cells without doxycycline (no increased androgen receptor expression), CellTiter-Glo. Conditions: T-Rex 293 SC3 cells not exposed to doxycycline (no increased androgen receptor expression), 72 hours. Format: cell-based. In short, it runs like this: as §1

Broadly, the GI50 is the concentration giving 50% growth inhibition. Higher therefore signals lower sensitivity of the cells.

For `Cn1cc(-c2cc(C(C)(C)O)ccc2Oc2ccc(OCC3CCN(c4ncc(C(=O)N[C@H]5C(C)(C)[C@H](Oc6ccc(C#N)c(Cl)c6)C5(C)C)cn4)CC3)cc2)c2cc[nH]c2c1=O` [Compound I-202], the GI50 in experiment [1] was < 500 nM; with VCaP cells (Homo sapiens), 500 to 1500 nM; in experiment [2], 500 to 1500 nM.

`Cn1cc(-c2cc(N)ccc2Oc2cccc(OCCN3CCN(c4ncc(C(=O)N[C@H]5C(C)(C)[C@H](Oc6ccc(C#N)c(Cl)c6)C5(C)C)cn4)CC3)c2F)c2cc[nH]c2c1=O` [Compound I-100]: the values for the GI50 (in experiment [1]; with VCaP cells (Homo sapiens); in experiment [2]) were < 500 nM, < 500 nM and > 3000 nM, respectively.

On to `CC(C)N(C1CCN(c2ncc(C(=O)N[C@H]3C(C)(C)[C@H](Oc4ccc(C#N)c(Cl)c4)C3(C)C)cn2)CC1)C1CN(c2cccc(Oc3ccc(C(C)(C)O)cc3-c3cn(C)c(=O)c4[nH]ccc34)c2F)C1` [Compound I-221], for which the GI50 in experiment [1] is < 500 nM; in the experiment on VCaP cells (Homo sapiens), > 3000 nM; in experiment [2] it was > 3000 nM.

Turning to `CCS(=O)(=O)Nc1ccc(Oc2cccc(N3CC4(CN(CC5CCN(c6ncc(C(=O)N[C@H]7C(C)(C)[C@H](Oc8ccc(C#N)c(Cl)c8)C7(C)C)cn6)CC5)C4)C3)c2)c(-c2cn(C)c(=O)c3[nH]ccc23)c1` [Compound I-35, N-((1r, 3r)-3-(3-chloro-4-cyanophenoxy)-2,2,4,4-tetramethylcyclobutyl)-2-(4-((6-(3-(4-(ethylsulfonamido)-2-(6-methyl-7-oxo-6,7-dihydro-1H-pyrrolo[2,3-c]pyridin-4-yl)phenoxy)phenyl)-2,6-diazaspiro[3.3]heptan-2-yl)methyl)piperidin-1-yl)pyrimidine-5-carboxamide], the 50% growth inhibitory concentration (GI50) in experiment [1] is < 500 nM; in the experiment with VCaP cells (Homo sapiens), < 500 nM; in experiment [2], 1500 to 3000 nM.

On to `Cn1cc(-c2cc(N)ccc2Oc2cccc(N3CC(N4CCN(c5ncc(C(=O)N[C@H]6C(C)(C)[C@H](Oc7ccc(C#N)c(Cl)c7)C6(C)C)cn5)CC4)C3)c2F)c2cc[nH]c2c1=O` [Compound I-93], for which the GI50 in experiment [1] was < 500 nM; with VCaP cells (Homo sapiens), < 500 nM; in experiment [2], > 3000 nM.

`CCS(=O)(=O)Nc1ccc(Oc2cccc(OC3CC(C4CCN(c5ncc(C(=O)N[C@H]6C(C)(C)[C@H](Oc7ccc(C#N)c(Cl)c7)C6(C)C)cn5)CC4)C3)c2)c(-c2cn(C)c(=O)c3[nH]ccc23)c1` (stereo partly drawn) [Compound I-104]: the GI50 in experiment [1] was < 500 nM; with VCaP cells, < 500 nM; in experiment [2], 500 to 1500 nM.

On to `CCS(=O)(=O)N(C)c1ccc(Oc2cccc(N3CCN(C4CN(c5ncc(C(=O)N[C@H]6C(C)(C)[C@H](Oc7ccc(C#N)c(Cl)c7)C6(C)C)cn5)C4)CC3)c2)c(-c2cn(C)c(=O)c3[nH]ccc23)c1` [Compound I-118], for which the GI50 in experiment [1] is < 500 nM; in the experiment with VCaP cells (Homo sapiens), < 500 nM; in experiment [2] it was > 3000 nM.

In the case of `CN(C1CCN(c2ncc(C(=O)N[C@H]3C(C)(C)[C@H](Oc4ccc(C#N)c(Cl)c4)C3(C)C)cn2)CC1)C1CN(c2ccc(Oc3ccc(C(C)(C)O)cc3-c3cn(C)c(=O)c4[nH]ccc34)cc2)C1` [Compound I-208], the 50% growth inhibitory concentration (GI50) in experiment [1] was < 500 nM; with VCaP cells (Homo sapiens), 500 to 1500 nM; in experiment [2], < 500 nM.

For `CN(CC1CCN(c2ncc(C(=O)N[C@H]3C(C)(C)[C@H](Oc4ccc(C#N)c(Cl)c4)C3(C)C)cn2)CC1)C1(c2ccc(Oc3ccc(C(C)(C)O)cc3-c3cn(C)c(=O)c4[nH]ccc34)cc2)COC1` [Compound I-255], the 50% growth inhibitory concentration (GI50) is < 500 nM in experiment [1], < 500 nM in the experiment on VCaP cells and 500 to 1500 nM in experiment [2].

Regarding `Cn1cc(-c2cc(C(C)(C)O)ccc2Oc2ccc(OCCN3CCN(c4ncc(C(=O)N[C@H]5C(C)(C)[C@H](Oc6ccc(C#N)c(Cl)c6)C5(C)C)cn4)CC3)cc2)c2cc[nH]c2c1=O` [Compound I-204], the GI50 in experiment [1] is < 500 nM; in the experiment on VCaP cells (Homo sapiens), < 500 nM; in experiment [2], 500 to 1500 nM.

For the compound `Cn1cc(-c2cc(C(C)(C)O)ccc2Oc2ccc(CC3CCN(c4ncc(C(=O)N[C@H]5C(C)(C)[C@H](Oc6ccc(C#N)c(Cl)c6)C5(C)C)cn4)CC3)cc2)c2cc[nH]c2c1=O` [Compound I-201], the GI50 in experiment [1] was < 500 nM; in the experiment on VCaP cells (Homo sapiens), 500 to 1500 nM; in experiment [2] it was 500 to 1500 nM.

As for `Cn1cc(-c2cc(C(C)(C)O)ccc2Oc2ccc(N3CC(OC4CCN(c5ncc(C(=O)N[C@H]6C(C)(C)[C@H](Oc7ccc(C#N)c(Cl)c7)C6(C)C)cn5)CC4)C3)cc2)c2cc[nH]c2c1=O` [Compound I-219], the GI50 (in experiment [1]; in the experiment on VCaP cells (Homo sapiens); in experiment [2]) was < 500 nM in each case.

Take `CCS(=O)(=O)Nc1ccc(Oc2cccc(OC3CCC4(CC3)CCN(c3ncc(C(=O)N[C@H]5C(C)(C)[C@H](Oc6ccc(C#N)c(Cl)c6)C5(C)C)cn3)CC4)c2)c(-c2cn(C)c(=O)c3[nH]ccc23)c1` [Compound I-45]: the results for the GI50 (in experiment [1]; in the experiment with VCaP cells (Homo sapiens); in experiment [2]) were < 500 nM, < 500 nM and > 3000 nM, respectively.

Turning to `Cn1cc(-c2cc(C(C)(C)O)ccc2Oc2ccc(CCCC3CC4(C3)CN(c3ncc(C(=O)N[C@H]5C(C)(C)[C@H](Oc6ccc(C#N)c(Cl)c6)C5(C)C)cn3)C4)cc2)c2cc[nH]c2c1=O` [Compound I-268], the values for the 50% growth inhibitory concentration (GI50) (in experiment [1]; in the experiment with VCaP cells (Homo sapiens); in experiment [2]) were < 500 nM, < 500 nM and 500 to 1500 nM, respectively.

Take `CN(C1CN(c2ccc(Oc3ccc(C(C)(C)O)cc3-c3cn(C)c(=O)c4[nH]ccc34)cc2)C1)C1CN(c2ncc(C(=O)N[C@H]3C(C)(C)[C@H](Oc4ccc(C#N)c(Cl)c4)C3(C)C)cn2)C1` [Compound I-238]: the 50% growth inhibitory concentration (GI50) in experiment [1] was < 500 nM; in the experiment on VCaP cells it was < 500 nM; in experiment [2], 500 to 1500 nM.

For the compound `CCS(=O)(=O)c1ccc(Oc2ccc(OCC3CCN(c4ncc5c(n4)CN([C@H]4C(C)(C)[C@H](Cc6ccc(C#N)c(Cl)c6)C4(C)C)C5=O)CC3)cc2)c(-c2cn(C)c(=O)c3[nH]ccc23)c1` [Compound I-220], the concentration for 50% growth inhibition (GI50) in experiment [1] was < 500 nM; in the experiment on VCaP cells (Homo sapiens), > 3000 nM; in experiment [2] it was < 500 nM.

As to `CCS(=O)(=O)Nc1ccc(Oc2cccc(N3CC(N(C)C4CN(c5ncc(C(=O)N[C@H]6C(C)(C)[C@H](Oc7ccc(C#N)c(Cl)c7)C6(C)C)cn5)C4)C3)c2)c(-c2cn(C)c(=O)c3[nH]ccc23)c1` [Compound I-120], the results for the 50% growth inhibitory concentration (GI50) (in experiment [1]; in the experiment with VCaP cells (Homo sapiens); in experiment [2]) were < 500 nM, < 500 nM and > 3000 nM, respectively.

Take `Cn1cc(-c2cc(C(C)(C)O)ccc2Oc2ccc(N3CC(CC4CN(c5ncc(C(=O)N[C@H]6C(C)(C)[C@H](Oc7ccc(C#N)c(Cl)c7)C6(C)C)cn5)C4)C3)cc2)c2cc[nH]c2c1=O` [Compound I-280]: the concentration for 50% growth inhibition (GI50) was < 500 nM in experiment [1], < 500 nM in the experiment with VCaP cells (Homo sapiens) and 1500 to 3000 nM in experiment [2].

In the case of `CCS(=O)(=O)Nc1ccc(Oc2cccc(OCCOC3CCN(c4cnc(C(=O)N[C@H]5C(C)(C)[C@H](Oc6ccc(C#N)c(Cl)c6)C5(C)C)cn4)CC3)c2)c(-c2cn(C)c(=O)c3[nH]ccc23)c1` [Compound I-71, N-((1r, 3r)-3-(3-chloro-4-cyanophenoxy)-2,2,4,4-tetramethylcyclobutyl)-5-(4-(2-(3-(4-(ethylsulfonamido)-2-(6-methyl-7-oxo-6,7-dihydro-1H-pyrrolo[2,3-c]pyridin-4-yl)phenoxy)phenoxy)ethoxy)piperidin-1-yl)pyrazine-2-carboxamide], the 50% growth inhibitory concentration (GI50) (in experiment [1]; in the experiment with VCaP cells (Homo sapiens); in experiment [2]) was < 500 nM throughout.

In the case of `CCS(=O)(=O)Nc1ccc(Oc2cccc(OCCOC3CCN(c4ccc(C(=O)N[C@H]5C(C)(C)[C@H](Oc6ccc(C#N)c(Cl)c6)C5(C)C)cn4)CC3)c2)c(-c2cn(C)c(=O)c3[nH]ccc23)c1` [Compound I-70, N-((1r, 3r)-3-(3-chloro-4-cyanophenoxy)-2,2,4,4-tetramethylcyclobutyl)-6-(4-(2-(3-(4-(ethylsulfonamido)-2-(6-methyl-7-oxo-6,7-dihydro-1H-pyrrolo[2,3-c]pyridin-4-yl)phenoxy)phenoxy)ethoxy)piperidin-1-yl)nicotinamide], the GI50 (in experiment [1]; in the experiment on VCaP cells (Homo sapiens); in experiment [2]) was < 500 nM each time.

On to `CCS(=O)(=O)Nc1ccc(Oc2cccc(N3CC(CC4CN(c5ncc(C(=O)N[C@H]6C(C)(C)[C@H](Oc7ccc(C#N)c(Cl)c7)C6(C)C)cn5)C4)C3)c2)c(-c2cn(C)c(=O)c3[nH]ccc23)c1` [Compound I-158], for which the GI50 in experiment [1] is < 500 nM; with VCaP cells, < 500 nM; in experiment [2], > 3000 nM.

`CCS(=O)(=O)Nc1ccc(Oc2cccc(CCOC3CCN(c4ncc(C(=O)N[C@H]5C(C)(C)[C@H](Oc6ccc(C#N)c(Cl)c6)C5(C)C)cn4)CC3)c2)c(-c2cn(C)c(=O)c3[nH]ccc23)c1` [Compound I-19]: the GI50 (in experiment [1]; with VCaP cells (Homo sapiens); in experiment [2]) was < 500 nM each time.

Turning to `Cn1cc(-c2cc(C(C)(C)O)ccc2Oc2ccc(N3CC4(C3)CN(c3ncc(C(=O)N[C@H]5C(C)(C)[C@H](Oc6ccc(C#N)c(Cl)c6)C5(C)C)cn3)CCO4)cc2)c2cc[nH]c2c1=O` [Compound I-212], the 50% growth inhibitory concentration (GI50) in experiment [1] was < 500 nM; in the experiment on VCaP cells, 1500 to 3000 nM; in experiment [2], 500 to 1500 nM.

As to `CCS(=O)(=O)c1ccc(Oc2cccc(OCCN3CCN(c4ncc5c(n4)CN([C@H]4C(C)(C)[C@H](Oc6ccc(C#N)c(Cl)c6)C4(C)C)C5=O)CC3)c2F)c(-c2cn(C)c(=O)c3[nH]ccc23)c1` [Compound I-217], the 50% growth inhibitory concentration (GI50) (in experiment [1]; in the experiment on VCaP cells; in experiment [2]) was < 500 nM each time.

Turning to `Cn1cc(-c2cc(C(C)(C)O)ccc2Oc2cccc(N3CC4(CN(c5ncc(C(=O)N[C@H]6C(C)(C)[C@H](Oc7ccc(C#N)c(Cl)c7)C6(C)C)cn5)CCO4)C3)c2F)c2cc[nH]c2c1=O` [Compound I-216], the GI50 (in experiment [1]; in the experiment with VCaP cells (Homo sapiens); in experiment [2]) was < 500 nM in each case.
